{"source": "patent US20240398651A1", "about": "(Neuro-Innovators, LLC., priority 2021, published 2024)", "origin": "cited, not measured here", "key": {"[1]": {"conditions": "in vivo"}, "[2]": {"conditions": "previous clinical trials, compared with aspirin"}}, "data": [{"compound": "O=C1CCc2cc(OCCCCc3nnnn3C3CCCCC3)ccc2N1", "note": "[Cilostazol]", "values": [{"measurement": "elimination half-life", "setting": "[1]", "value": "11 to 13", "unit": "h"}, {"measurement": "hemorrhagic events", "setting": "[2]", "value": "fewer hemorrhagic events"}, {"measurement": "incidence of recurrent stroke", "setting": "[2]", "value": "significantly reduce the incidence of recurrent stroke"}]}]}
